Assay results as given in US10716950B2, “Treatment of thalamocortical dysrhythmia” (priority 2012, dated 2020).
Entries after “also recorded” stand apart in the source; their conditions may differ. Like-named read-outs stand apart in the source and are kept apart here.

Experiments:
[1] = system: conditions associated with thalamocortical dysrhythmia; test: TMS/Ketamine combination treatment of patients (Example 1)
Method: Thirty-five patients were treated with a combination of ketamine and TMS. […] For simplicity of presentation in Table 2, patients receiving treatment more than once a week are shown as receiving a single treatment for that week. Also, intervals are rounded to the nearest week.
Others received a priming TMS treatment prior to the combination treatment. Some patients received neither pretreatment nor priming, although most patients received one or the other. Since the priming treatment is less rigorous than several days of pretreatment, all patients receiving pretreatment were ultimately switched to priming or neither. Pretreatment and or priming treatment were administered based upon diagnosis and patient compliance.

depression = settings: ketamine alone, cited from earlier work
[2] = system: obsessive-compulsive disorder (OCD); settings: OCD patients infused with ketamine; compared with depression and CRPS; Pittenger et al. 2012; cited from earlier work
[3] = system: conditions associated with thalamocortical dysrhythmia; test: TLVES/Ketamine combination treatment of patients (Example 2); settings: all three patients; tACS or tRNS 20 minutes; ketamine total dose 0.5-5.0 mg per kg infused over 15-50 minutes
[4] = patient B3, Unipolar Depression & ADD, ketamine combined with TMS
[5] = patient B6, Bipolar Depression, ketamine combined with TMS
[6] = patient B23, Fibromyalgia, PTSD, mixed connective tissue disease, ketamine combined with TMS
[7] = patient B26, Bipolar Disorder, poly-substance abuse, ketamine combined with TMS
[8] = patient C11, Tourette's and secondary depression, ketamine combined with TMS
[9] = patient D8, OCD & secondary depression, ketamine combined with TMS
[10] = patient D20, Depression & frontal lobe disorder, ketamine combined with TMS
[11] = patient H2, Bipolar Depression, ketamine combined with TMS
[12] = patient K10, CRPS & regulatory disorder of childhood, ketamine combined with TMS
[13] = patient N7, Multiple head injuries and depression, ketamine combined with TMS
[14] = patient N13, Bipolar Disorder & chronic neck and back pain, ketamine combined with TMS
[15] = patient N14, Unipolar Depression, ADD, alcohol abuse, concussion, ketamine combined with TMS
[16] = patient N30, Depression, fibromyalgia, back pain, ketamine combined with TMS
[17] = patient O34, ADHD, concussion, back pain, substance abuse, ketamine combined with TMS
[18] = patient Q9, Bipolar Depression, ketamine combined with TMS
[19] = patient R17, Childhood depression, PTSD, poly-substance abuse, ketamine combined with TMS
[20] = patient R32, OCD & secondary depression, poly-substance abuse, ketamine combined with TMS
[21] = patient S1, Generalized anxiety & secondary depression, ketamine combined with TMS
[22] = patient S36, Depression, panic attacks, ketamine combined with TMS
[23] = patient T15, Bipolar Depression, ketamine combined with TMS
[24] = patient T29, Bipolar Disorder, dormant poly-substance abuse, ketamine combined with TMS
[25] = patient W24, Depression, ketamine combined with TMS
[26] = patient Z4, Unipolar Depression & ADD, ketamine combined with TMS
[27] = patient Z27, Childhood onset bipolar disorder, ADD, RSD, ketamine combined with TMS
[28] = patient, Bipolar Disorder, poly-substance abuse, ketamine combined with TMS
[29] = patient, Depression & poly-substance abuse, ketamine combined with TMS
[30] = patient, Unipolar Depression & minor epilepsy, ketamine combined with TMS
[31] = patients having positive outcomes, ketamine combined with TMS

Question: With `CNC1(c2ccccc2Cl)CCCCC1=O` (racemic) [ketamine, (RS)-2-(2-Chlorophenyl)-2-(methylamino)cyclohexanone] as the compound, how does the “Outcome of the patients that completed treatment” value ([1]; all of the 28 patients that completed treatment, of thirty-five treated, ketamine combined with TMS) read?
Answer: positive outcome

Question: What about the Outcome [1, 4] of the same compound?
Answer: entered graduate school, got out of abusive relationship

Question: What about the “Overall Response” value [1, 4] of the same compound?
Answer: excellent

Question: And the Outcome [1, 5]?
Answer: entered graduate school, began to date for first time

Question: What about the “Overall Response” value [1, 5] of the same compound?
Answer: excellent

Question: And the Outcome [1, 6]?
Answer: off pain medicine, calm, more active

Question: What about the “Outcome: adverse effect” value [1, 6] of the same compound?
Answer: experienced severe nausea

Question: And the “Overall Response” value [1, 6]?
Answer: excellent

Question: And the Outcome [1, 7]?
Answer: returned to college, got married

Question: What about the “Overall Response” value [1, 7] of the same compound?
Answer: excellent

Question: And the Outcome [1, 8]?
Answer: off of inappropriate medicines, calm, in school

Question: What about the “Overall Response” value [1, 8] of the same compound?
Answer: good

Question: And the Outcome [1, 9]?
Answer: back to work and active family life

Question: And the “Overall Response” value [1, 9]?
Answer: good

Question: What about the Outcome [1, 10] of the same compound?
Answer: depression lifted, apathy lifted, pace of thought improved

Question: And the “Overall Response” value [1, 10]?
Answer: excellent

Question: What about the Outcome [1, 11] of the same compound?
Answer: returned to home-life and active mothering

Question: And the “Overall Response” value [1, 11]?
Answer: good

Question: And the Outcome [1, 12]?
Answer: off of opioid narcotics, entered trade school, saved subject's life

Question: And the “Overall Response” value [1, 12]?
Answer: excellent

Question: And the Outcome [1, 13]?
Answer: off of all opioid narcotics, back to church life

Question: What about the “Overall Response” value [1, 13] of the same compound?
Answer: excellent

Question: What about the Outcome [1, 14] of the same compound?
Answer: off of all opioid narcotics, calm, walking well

Question: What about the “Overall Response” value [1, 14] of the same compound?
Answer: very good

Question: What about the Outcome [1, 15] of the same compound?
Answer: calm, repaired broken business & family life, sober

Question: What about the “Overall Response” value [1, 15] of the same compound?
Answer: very good

Question: What about the Outcome [1, 16] of the same compound?
Answer: off opioid narcotics, not depressed, traveling

Question: And the “Overall Response” value [1, 16]?
Answer: excellent

Question: What about the Outcome [1, 17] of the same compound?
Answer: did very well, significant other coaxed subject back to substance; also recorded: abuse

Question: What about the “Overall Response” value [1, 17] of the same compound?
Answer: excellent

Question: What about the Outcome [1, 18] of the same compound?
Answer: back to work, repaired broken marriage

Question: And the “Overall Response” value [1, 18]?
Answer: excellent

Question: And the Outcome [1, 19]?
Answer: learned to read, entered college, sober

Question: And the “Overall Response” value [1, 19]?
Answer: excellent

Question: And the Outcome [1, 20]?
Answer: sober, calm, back to college

Question: What about the “Overall Response” value [1, 20] of the same compound?
Answer: excellent

Question: What about the Outcome [1, 21] of the same compound?
Answer: returned to college, sober

Question: And the “Overall Response” value [1, 21]?
Answer: excellent

Question: And the Outcome [1, 22]?
Answer: did very well, repaired broken marriage and family

Question: What about the “Overall Response” value [1, 22] of the same compound?
Answer: excellent

Question: And the Outcome [1, 23]?
Answer: back to church life and active family life

Question: What about the “Overall Response” value [1, 23] of the same compound?
Answer: excellent

Question: What about the Outcome [1, 24] of the same compound?
Answer: entered graduate school, running family business, still sober

Question: What about the “Overall Response” value [1, 24] of the same compound?
Answer: excellent

Question: And the Outcome [1, 25]?
Answer: back to work and active family life

Question: And the “Overall Response” value [1, 25]?
Answer: excellent

Question: And the Outcome [1, 26]?
Answer: no longer bedridden, left bad marriage

Question: And the “Overall Response” value [1, 26]?
Answer: very good

Question: And the Outcome [1, 27]?
Answer: sober, calm, entered college and at work part-time

Question: What about the “Overall Response” value [1, 27] of the same compound?
Answer: very good

Question: What about the Outcome [1, 28] of the same compound?
Answer: calm, still in early stage of treatment

Question: What about the “Overall Response” value [1, 28] of the same compound?
Answer: very good

Question: What about the Outcome [1, 29] of the same compound?
Answer: sober, active with family business

Question: What about the “Overall Response” value [1, 29] of the same compound?
Answer: excellent

Question: And the Outcome [1, 30]?
Answer: relapsed

Question: What about the “Overall Response” value [1, 30] of the same compound?
Answer: good

Question: What about the Adverse side effects [1, 31] of the same compound?
Answer: reduced adverse side effects

Question: What about the “Durability of the positive result” value [1, 31] of the same compound?
Answer: more robust, i.e., long lasting, positive result; also recorded: lasting result

Question: And the “Percentage of patients with positive outcome compared with success rate reported for TMS alone or ketamine alone” value ([1]; patients that completed treatment, ketamine combined with TMS)?
Answer: higher

Question: And the “Response to previous TMS/ketamine treatment” value ([1]; three more frail, less robust patients later given TLVES/ketamine)?
Answer: significantly improved

Question: And the “Lasting relief from suicidality or depression” value (depression)?
Answer: highly transitory

Question: And the “Success rate in the treatment of depression” value (depression; dosages reportedly 5-15 times higher than with TMS)?
Answer: 60-70%

Question: And the “Lasting relief from suicidality or depression” value (depression; listed as Ketamine)?
Answer: does not, however, appear to provide lasting relief from suicidality or depression

Question: What about the “Effectiveness in treating depression” value (depression; patients with bipolar disorder who have not responded to anti-depressants) of the same compound?
Answer: effective

Question: What about the “Time to rapid antidepressant effect” value (depression; persons with major depressive disorder (and bipolar depression)) of the same compound?
Answer: two

Question: What about the “Benefit in OCD patients” value [2] of the same compound?
Answer: rather more limited

Question: What about the “Post-treatment fatigue compared with TMS/ketamine” value [3] of the same compound?
Answer: less of the post-treatment fatigue

Question: And the “Therapeutic benefit compared with TMS/ketamine” value [3]?
Answer: same therapeutic benefits as TMS/ketamine
